Experimental data reported in ChEMBL document CHEMBL3045689, “Synthesis of novel 2-(3-aryl-sydnon-4-ylidene)-5-substituted-[1,3,4]-thiadiazolylamines and [1,3,4]-thiadiazol-2-yl-3-oxo-[1,2,4]-triazoles as antimicrobial agents” (2012).
Converted amounts (≈) assume the structure as drawn.

What was measured:
Assay type in all cases: functional
Candida albicans = experiment: Antifungal activity against Candida albicans after 18 to 24 hr by microbroth dilution method
Aspergillus niger = experiment: Antifungal activity against Aspergillus niger after 18 to 24 hr by microbroth dilution method
Bacillus cereus = experiment: Antibacterial activity against Bacillus cereus after 18 to 24 hr by microbroth dilution method
Escherichia coli = experiment: Antibacterial activity against Escherichia coli after 18 to 24 hr by microbroth dilution method

MIC (Candida albicans) [µg/mL]	MIC (Aspergillus niger) [µg/mL]	MIC (Bacillus cereus) [µg/mL]	MIC (Escherichia coli) [µg/mL]	Compound
31.2 (≈ 93.2 µM)	62.5 (≈ 186 µM)	125 (≈ 373 µM)	31.2 (≈ 93.2 µM)	Cc1nn(-c2ccccc2)c(=O)n1-c1nnc(-c2ccccc2)s1
125 (≈ 358 µM)	62.5 (≈ 179 µM)	62.5 (≈ 179 µM)	15.6 (≈ 44.6 µM)	Cc1ccc(-n2nc(C)n(-c3nnc(-c4ccccc4)s3)c2=O)cc1
31.2 (≈ 85.5 µM)	62.5 (≈ 171 µM)	125 (≈ 342 µM)	15.6 (≈ 42.7 µM)	COc1ccc(-n2nc(C)n(-c3nnc(-c4ccccc4)s3)c2=O)cc1
7.8 (≈ 21.1 µM)	15.6 (≈ 42.2 µM)	15.6 (≈ 42.2 µM)	31.2 (≈ 84.5 µM)	Cc1nn(-c2ccc(Cl)cc2)c(=O)n1-c1nnc(-c2ccccc2)s1
31.2 (≈ 114 µM)	62.5 (≈ 229 µM)	125 (≈ 457 µM)	62.5 (≈ 229 µM)	Cc1nnc(-n2c(C)nn(-c3ccccc3)c2=O)s1
62.5 (≈ 218 µM)	62.5 (≈ 218 µM)	62.5 (≈ 218 µM)	62.5 (≈ 218 µM)	Cc1ccc(-n2nc(C)n(-c3nnc(C)s3)c2=O)cc1
31.2 (≈ 103 µM)	7.8 (≈ 25.7 µM)	31.5 (≈ 104 µM)	15.6 (≈ 51.4 µM)	COc1ccc(-n2nc(C)n(-c3nnc(C)s3)c2=O)cc1
7.8 (≈ 25.3 µM)	7.8 (≈ 25.3 µM)	15.6 (≈ 50.7 µM)	15.6 (≈ 50.7 µM)	Cc1nnc(-n2c(C)nn(-c3ccc(Cl)cc3)c2=O)s1
31.2 (≈ 89.4 µM)	125 (≈ 358 µM)	125 (≈ 358 µM)	31.2 (≈ 89.4 µM)	[O-]c1on[n+](-c2ccccc2)c1/C=N/c1nnc(-c2ccccc2)s1
3.9 (≈ 10.7 µM)	125 (≈ 344 µM)	125 (≈ 344 µM)	62.5 (≈ 172 µM)	Cc1ccc(-[n+]2noc([O-])c2/C=N/c2nnc(-c3ccccc3)s2)cc1
62.5 (≈ 165 µM)	62.5 (≈ 165 µM)	62.5 (≈ 165 µM)	62.5 (≈ 165 µM)	COc1ccc(-[n+]2noc([O-])c2/C=N/c2nnc(-c3ccccc3)s2)cc1
7.8 (≈ 20.3 µM)	31.2 (≈ 81.4 µM)	62.5 (≈ 163 µM)	31.2 (≈ 81.4 µM)	[O-]c1on[n+](-c2ccc(Cl)cc2)c1/C=N/c1nnc(-c2ccccc2)s1
31.2 (≈ 109 µM)	125 (≈ 435 µM)	250 (≈ 870 µM)	62.5 (≈ 218 µM)	Cc1nnc(/N=C/c2c([O-])on[n+]2-c2ccccc2)s1
31.2 (≈ 104 µM)	125 (≈ 415 µM)	125 (≈ 415 µM)	62.5 (≈ 207 µM)	Cc1ccc(-[n+]2noc([O-])c2/C=N/c2nnc(C)s2)cc1
7.8 (≈ 24.6 µM)	125 (≈ 394 µM)	125 (≈ 394 µM)	15.6 (≈ 49.2 µM)	COc1ccc(-[n+]2noc([O-])c2/C=N/c2nnc(C)s2)cc1
7.8 (≈ 24.2 µM)	125 (≈ 389 µM)	62.5 (≈ 194 µM)	62.5 (≈ 194 µM)	Cc1nnc(/N=C/c2c([O-])on[n+]2-c2ccc(Cl)cc2)s1
–	–	12.5 (≈ 38.7 µM)	1.95 (≈ 6.03 µM)	O=C(N[C@H](CO)[C@H](O)c1ccc([N+](=O)[O-])cc1)C(Cl)Cl [CHLORAMPHENICOL]

Compound	MIC (Candida albicans) [µg/mL]	MIC (Aspergillus niger) [µg/mL]	MIC (Bacillus cereus) [µg/mL]	MIC (Escherichia coli) [µg/mL]
CC(=O)N1CCN(c2ccc(OCC3COC(Cn4ccnc4)(c4ccc(Cl)cc4Cl)O3)cc2)CC1 (stereo not drawn) [KETOCONAZOLE]	0.97 (≈ 1.83 µM)	0.97 (≈ 1.83 µM)	–	–
